# Patent US20240343747A1, “Heteroaryl compounds as inhibitors of TYK2, composition and application thereof” (Accro Bioscience (HK) Limited, priority 2021, published 2024)
# Columns and labels:
# TYK2 = TYK2 (Mus musculus (Mouse), UniProt Q9R117); assay: Luciferase assay in L929 ISRE cells stimulated with IFN-α; type: cell-based; conditions: IFN-α 100 ng/mL; for inhibition at 1 µM: read-out: Inhibitory activity % (1000 nM)
# Procedure: • 1. L929 ISRE cells (5000 cells/well) were seeded on 96-well plates and incubated overnight at room temperature; • 2. The cells were pretreated by adding different concentrations (10 nM, 50 nM, 100 nM, 200 nM or 1000 nM) of the test compounds for 2 hours; • 3. Added IFN-α (100 ng/mL) to stimulate cells for 6 hours; • 4. Removed the upper medium, add PBS (100 μL) and washed, then removed PBS; • 5. Added PLB lysis solution (50 μL) to each well, shook the well for 15 minutes; • 6. Transferred PLB lysis solution (30 μL) to a new 96-well whiteboard, added LAR II reagent (LAR II), then quickly read the […]; • 7. Added Stop & Glo reagent (30 μL), then read the 450 nm OD value using the plate washer. • 8. The final results in Table 3 were the OD value in step 6/OD value in step 7.
# [1] = system: production of CXCL-10 stimulated by IFNα in PBMC; assay: ELISA: production of CXCL-10 stimulated by IFNα in PBMC; type: cell-based; conditions: CXCL-10 production stimulated by IFNα in PBMC, ELISA
# Procedure: • 1. Soak plate: Add 300 μL 1×washing solution and let stand for 30 seconds. After discarding the washing solution, dry the microporous plate on absorbent paper. • 2. Add standard: Add 100 μL of 2-fold standard to standard well. Add 100 μL standard dilution (serum/plasma sample) or culture medium (cell culture supernatant sample) to blank well. • 3. Add sample: Serum/plasma: Add 50 μL 1×assay buffer and 50 μL sample to sample well. Cell culture supernatant: Add 100 μL cell culture supernatant to sample well. • 4. Add detection antibody: Add 50 μL diluted detection antibody (1:100 diluted) to each well. Make sure steps 4, 5 and 6 are added continuously without interruption. The sampling process was completed within 15 minutes. • 5. Incubation: Use sealing plate film to seal the plate. shake at 300 rpm and incubate for 2 hours at room temperature. • 6. Washing: Discard the liquid, add 300 μL of washing solution and wash the plate 6 times. pat dry on blotting paper after each wash. To obtain the desired experimental performance, the residual liquid must be completely removed. • 7. Enzyme addition: Add 100 μL diluted horseradish peroxidase labeled streptavidin to each well (1:100 diluted). • 8. Incubation: Seal the plate with a new sealing film. shake at 300 rpm and incubate at room temperature for 45 minutes. • 9. Washing. Repeat step […]. • 10. Add substrate for color development: Add 100 μL of color development substrate TMB to each well, keep away from light, and incubate at room temperature for 5-30 minutes. • 11. Add Stop Solution: Add 100 μL stop solution to each well. The color changed from blue to yellow. If the color appears green or the color changes unevenly, gently tap the frame of the plate to mix well. • 12. Assay readout: Within 30 minutes, perform dual wavelength detection using a microplate reader to measure the OD at the absorption maximum at 450 nm and reference wavelengths at 570 nm or 630 nm. The calibrated OD value is the measured value at 450 nm minus the measured value at 570 nm or 630 nm.
# JAK2/JAK2 pathway = assay: Selectivity: JAK2/JAK2 pathway, TPO-induced p-STAT3 in MEG-1 cells, western blot; type: cell-based; conditions: TPO 100 ng/mL
# Procedure: MEG-1 cells were digested by trypsin, re-suspended in 1640 medium and counted. The compounds to be measured were added to 6 well plates (1 million/per well) for 2 hours, and then TPO (final concentration: 100 ng/mL) was added to stimulate cells for 30 minutes. The cells were collected and lysed with protein lysate. The protein was quantitatively tested by BCA kit. Finally, p-STAT3/STAT3 and internal reference protein β-actin were detected by western blot.
# JAK1/JAK2 pathway = assay: Selectivity: JAK1/JAK2 pathway, IFN-γ-induced p-STAT1 in HT-29 cells, western blot; type: cell-based; conditions: IFN-γ 100 ng/mL
# Procedure: HT-29 cells were digested by trypsin and suspended in DMEM medium and counted. The tested compounds were added into 6 well plates (400 000/per well) for 2 hours, then IFN-γ (100 ng/mL) was added to stimulate cells for 30 minutes. The cells were collected and lysed with protein lysate. The protein was quantitatively tested by BCA kit. Finally, p-STAT1/STAT1 and internal reference protein β-actin were detected by western blot.
# JAK1/JAK3 pathway = assay: Selectivity: JAK1/JAK3 pathway, IL-2-induced p-STAT5 in human PBMC, western blot; type: cell-based; conditions: IL-2 100 ng/mL
# Procedure: Commercial human PBMC (peripheral blood mononuclear cells) were centrifuged (400 g) for 10 min, counted and seeded into 6-well plates (5 million/well). The compounds to be tested were added for 2 hours and then IL-2 (100 ng/mL) was added to stimulate cells for 15 minutes. Finally, p-STAT5/STAT5 and internal reference protein β-actin were detected by Western blot.
# IL-23 induced psoriasis = IL-23 induced psoriasis in mice (ear thickness); type: in vivo; conditions: oral gavage twice a day, 14 days, B41 10 and 30 mg/kg, BMS986165 10 mg/kg
# Procedure: Recombinant human IL-23 (100 ng/time/mouse) was injected into the right ear of mice every two days starting from day 1 of the study. The administration group included 7 mice, with EtOH:TPGS:PEG300=[…] as vehicle, compound B41 (10 mg/kg, 30 mg/kg) or BMS986165 (10 mg/kg) orally gavage twice a day the night before the first injection of IL-23. The control group was injected with vehicle alone. The experiment lasted for 14 days. The thickness of the ear was measured with a micrometer every two days.
# TYK2 JH2 = TYK2 JH2 (Homo sapiens (Human), UniProt P29597); assay: Competitive binding assay (kinase-tagged phage, qPCR), TYK2 JH2
# Chain of TYK2 JH2 (P29597 589-875): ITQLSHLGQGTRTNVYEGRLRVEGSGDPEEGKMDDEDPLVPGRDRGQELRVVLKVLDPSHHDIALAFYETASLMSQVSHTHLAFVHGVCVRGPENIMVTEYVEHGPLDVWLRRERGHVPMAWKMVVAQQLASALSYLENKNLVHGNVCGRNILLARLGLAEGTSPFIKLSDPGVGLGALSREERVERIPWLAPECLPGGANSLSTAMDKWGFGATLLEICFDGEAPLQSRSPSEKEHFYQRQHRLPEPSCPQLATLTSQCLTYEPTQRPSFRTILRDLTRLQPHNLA
# Procedure: (§1) For most assays, kinase-tagged T7 phage strains were prepared in an E. coli host derived from the BL21 strain. E. coli were grown to log-phase and infected with T7 phage and incubated with shaking at 32° C. until lysis. The lysates were centrifuged and filtered to remove cell debris. The remaining kinases were produced in HEK-293 cells and subsequently tagged with DNA for qPCR detection. Streptavidin coated magnetic beads were treated with biotinylated small molecule ligands for 30 minutes at room temperature to generate affinity resins for kinase assays. The liganded beads were blocked with excess biotin and washed with blocking buffer (SeaBlock (Pierce), 1% BSA, 0.05% Tween 20, 1 mM DTT) to remove unbound ligand and to reduce non-specific binding. […] Test compounds were prepared as 111X stocks in 100% DMSO. Dissociation constants (Kds) were determined using an 11-point 3-fold compound dilution series with three DMSO control points. All compounds for Kd measurements are distributed by acoustic transfer (non-contact dispensing) in 100% DMSO. The compounds were then diluted directly into the assays such that the final concentration of DMSO was 0.9%. All reactions performed in polypropylene 384-well plate. Each was a final volume of 0.02 ml. The assay plates were incubated at room temperature with shaking for 1 hour and the affinity beads were washed with wash buffer (1×PBS, 0.05% Tween 20). The beads were then re-suspended in elution buffer (1×PBS, 0.05% Tween 20, 0.5 μM nonbiotinylated affinity ligand) and incubated at room temperature with shaking for 30 minutes. The kinase concentration in the eluates was measured by qPCR.
# (§2) An 11-point 3-fold serial dilution of each test compound was prepared in 100% DMSO at 100× final test concentration and subsequently diluted to 1× in the assay (final DMSO concentration=1%). Most Kds were determined using a compound top concentration=30,000 nM. If the initial Kd determined was <0.5 nM (the lowest concentration tested), the measurement was repeated with a serial dilution starting at a lower top concentration.
# (§3) Binding constants (Kds) were calculated with a standard dose-response curve using the Hill equation: […]
# (§4) The Hill Slope was set to −1.
# (§5) Curves were fitted using a non-linear least square fit with the Levenberg-Marquardt algorithm.
# JAK1 JH1 = JAK1 JH1 (Homo sapiens (Human), UniProt P23458); assay: Competitive binding assay (kinase-tagged phage, qPCR), JAK1 JH1
# Chain of JAK1 JH1 (P23458 875-1153): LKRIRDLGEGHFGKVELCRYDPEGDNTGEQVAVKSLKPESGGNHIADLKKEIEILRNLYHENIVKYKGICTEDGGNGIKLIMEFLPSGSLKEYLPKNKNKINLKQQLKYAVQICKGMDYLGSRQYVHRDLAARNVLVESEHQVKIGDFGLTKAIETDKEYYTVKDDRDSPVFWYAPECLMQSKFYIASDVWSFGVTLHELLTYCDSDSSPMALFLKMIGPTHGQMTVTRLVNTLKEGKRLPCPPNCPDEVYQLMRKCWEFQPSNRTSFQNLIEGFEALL
# Procedure: as §1, §2, §3, §4, §5
# hERG channel = hERG channel (Homo sapiens (Human), UniProt Q12809); assay: in vitro; conditions: human
# Chain of hERG channel (Q12809 whole entry): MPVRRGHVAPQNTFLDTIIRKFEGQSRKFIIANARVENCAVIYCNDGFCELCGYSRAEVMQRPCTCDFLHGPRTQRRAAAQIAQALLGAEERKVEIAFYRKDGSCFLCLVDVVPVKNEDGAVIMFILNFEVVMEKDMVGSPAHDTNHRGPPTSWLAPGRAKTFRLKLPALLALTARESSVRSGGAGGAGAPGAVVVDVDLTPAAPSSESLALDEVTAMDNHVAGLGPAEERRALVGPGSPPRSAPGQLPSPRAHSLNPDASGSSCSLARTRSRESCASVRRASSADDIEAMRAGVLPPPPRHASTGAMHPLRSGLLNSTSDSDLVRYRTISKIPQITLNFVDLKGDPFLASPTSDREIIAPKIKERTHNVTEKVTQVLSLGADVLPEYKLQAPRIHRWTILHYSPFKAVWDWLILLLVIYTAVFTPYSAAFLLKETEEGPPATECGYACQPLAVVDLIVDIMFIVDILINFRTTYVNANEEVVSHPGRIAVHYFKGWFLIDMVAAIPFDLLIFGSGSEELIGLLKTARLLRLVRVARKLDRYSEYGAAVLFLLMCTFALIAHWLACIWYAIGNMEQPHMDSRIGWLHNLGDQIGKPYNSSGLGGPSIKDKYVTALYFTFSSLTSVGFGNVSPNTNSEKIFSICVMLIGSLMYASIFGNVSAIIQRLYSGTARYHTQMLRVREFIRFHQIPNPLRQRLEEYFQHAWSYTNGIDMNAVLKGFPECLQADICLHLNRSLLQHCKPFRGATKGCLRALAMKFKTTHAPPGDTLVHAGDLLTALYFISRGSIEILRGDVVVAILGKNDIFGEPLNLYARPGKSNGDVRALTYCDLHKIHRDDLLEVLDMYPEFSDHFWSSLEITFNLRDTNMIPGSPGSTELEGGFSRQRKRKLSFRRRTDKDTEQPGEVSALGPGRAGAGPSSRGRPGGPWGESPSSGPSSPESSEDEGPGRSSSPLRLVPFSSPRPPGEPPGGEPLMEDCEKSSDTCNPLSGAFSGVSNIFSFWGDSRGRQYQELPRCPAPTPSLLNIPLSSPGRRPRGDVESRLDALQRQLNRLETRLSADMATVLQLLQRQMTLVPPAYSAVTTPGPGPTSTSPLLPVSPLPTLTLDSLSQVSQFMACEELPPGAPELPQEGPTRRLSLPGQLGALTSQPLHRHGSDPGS
# Procedure: Chinese hamster ovary (CHO) cell line, CHO-hERG cells were used in this study. CHO-hERG cells were derived from Sophion Biosciences Inc. (Ballerup, Denmark) in Suzhou, China. The cell reserve fluid is frozen in liquid nitrogen tanks. Each batch of stored cell fluid is tested for mycoplasma contamination. The cells were no longer used after 30 generations.
# The whole cell patch clamp technique was used to record hERG current at room temperature. The patch-clamp amplifier outputs signals through […] conversion and 2.9 KHz low-pass filtering. Data records were collected by Patchmaster Pro software.
# Cells were planted in a cell recording tank and placed on an inverted microscope platform. One cell in the recording tank was randomly selected for experiment. The perfusion system was fixed on an inverted microscope platform and cells were continuously irrigated with ECS.
# Manual patch clamp recording microelectrode was prepared with capillary glass tube, which was filled with intracellular fluid. On the day of the patch clamp test, the electrodes were prepared using a borosilicate glass tube (GC150TF-10, Harvard Apparatus Co. UK). The resistance is between 2-5 MΩ after the electrode is filled with ICS.
# The clamping voltage was −80 mV, and the first step was depolarized to +60 mV for 850 ms to open the hERG channel. The voltage is then set to −50 mV and maintained for 1275 ms, resulting in a rebound current or tail current, the peak of which is measured and used for analysis. Finally, the voltage is restored to the clamping voltage (−80 mV). During the test, the command voltage program was repeated every 15 s.
# At the beginning of recording the perfusion of the solvent control working solution, the test substance/positive control working solution to be tested can be poured after monitoring the tail current peak until more than 3 scanning curves are stable, until the inhibition of the test substance/positive control working solution to the hERG current peak reaches a stable state. Generally, the most recent three consecutive peak values of the current curve basically coincide as a criterion to judge whether the state is stable. After reaching a stable state, continue to pour one concentration of the test sample. One or more test subjects/positive controls, or multiple concentrations of the same drug, can be tested on a cell, and the different test subjects/positive controls need to be rinsed with a solvent control working fluid until the hERG current returns to more than 80% of its pre-drug level.
# The concentration of positive control cisapride was 0.1 μM, and two cells were repeated.
# JAK2 JH1 = JAK2 JH1 (Homo sapiens (Human), UniProt O60674); assay: Competitive binding assay (kinase-tagged phage, qPCR), JAK2 JH1
# Chain of JAK2 JH1 (O60674 849-1124): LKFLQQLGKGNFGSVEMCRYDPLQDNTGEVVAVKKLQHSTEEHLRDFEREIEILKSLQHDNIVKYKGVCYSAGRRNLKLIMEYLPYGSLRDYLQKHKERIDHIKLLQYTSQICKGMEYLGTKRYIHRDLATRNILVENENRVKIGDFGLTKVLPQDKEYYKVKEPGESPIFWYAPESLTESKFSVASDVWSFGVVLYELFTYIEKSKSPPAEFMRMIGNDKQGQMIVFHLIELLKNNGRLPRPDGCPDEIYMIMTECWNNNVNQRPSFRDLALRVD
# Procedure: For most assays, kinase-tagged T7 phage strains were prepared in an E. coli host derived from the BL21 strain. E. coli were grown to log-phase and infected with T7 phage and incubated with shaking at 32° C. until lysis. The lysates were centrifuged and filtered to remove cell debris. The remaining kinases were produced in HEK-293 cells and subsequently tagged with DNA for qPCR detection. Streptavidin coated magnetic beads were treated with biotinylated small molecule ligands for 30 minutes at room temperature to generate affinity resins for kinase assays. The liganded beads were blocked with excess biotin and washed with blocking buffer (SeaBlock (Pierce), 1% BSA, 0.05% Tween 20, 1 mM DTT) to remove unbound ligand and to reduce non-specific binding. […] Test compounds were prepared as 111X stocks in 100% DMSO. Dissociation constants (Kds) were determined using an 11-point 3-fold compound dilution series with three DMSO control points. […] The kinase concentration in the eluates was measured by qPCR.
# An 11-point 3-fold serial dilution of each test compound was prepared in 100% DMSO at 100× final test concentration and subsequently diluted to 1× in the assay (final DMSO concentration=1%). Most Kds were determined using a compound top concentration=30,000 nM. […]
# as §3
# TYK2/JAK1 pathway = assay: Selectivity: TYK2/JAK1 pathway, IFN-α-induced p-STAT1 in human PBMC, western blot; type: cell-based; conditions: IFN-α 100 ng/mL, western blot
# Procedure: Commercial human PBMC (peripheral blood mononuclear cells) were centrifuged (400 g) for 10 min, counted and planted on 6-well plates (5 million/well). Then, the compounds to be tested were added for 2 hours and IFN-α (100 ng/mL) was added to stimulate cells for 15 minutes. Protein lysate was used to lysate cells, and BCA kit was used for protein quantification. Finally, p-STAT1/STAT1, P-TYK2/TYK2 and internal reference protein B-Actin were detected by Western blot.
# Chain of TYK2 (Q9R117 whole entry): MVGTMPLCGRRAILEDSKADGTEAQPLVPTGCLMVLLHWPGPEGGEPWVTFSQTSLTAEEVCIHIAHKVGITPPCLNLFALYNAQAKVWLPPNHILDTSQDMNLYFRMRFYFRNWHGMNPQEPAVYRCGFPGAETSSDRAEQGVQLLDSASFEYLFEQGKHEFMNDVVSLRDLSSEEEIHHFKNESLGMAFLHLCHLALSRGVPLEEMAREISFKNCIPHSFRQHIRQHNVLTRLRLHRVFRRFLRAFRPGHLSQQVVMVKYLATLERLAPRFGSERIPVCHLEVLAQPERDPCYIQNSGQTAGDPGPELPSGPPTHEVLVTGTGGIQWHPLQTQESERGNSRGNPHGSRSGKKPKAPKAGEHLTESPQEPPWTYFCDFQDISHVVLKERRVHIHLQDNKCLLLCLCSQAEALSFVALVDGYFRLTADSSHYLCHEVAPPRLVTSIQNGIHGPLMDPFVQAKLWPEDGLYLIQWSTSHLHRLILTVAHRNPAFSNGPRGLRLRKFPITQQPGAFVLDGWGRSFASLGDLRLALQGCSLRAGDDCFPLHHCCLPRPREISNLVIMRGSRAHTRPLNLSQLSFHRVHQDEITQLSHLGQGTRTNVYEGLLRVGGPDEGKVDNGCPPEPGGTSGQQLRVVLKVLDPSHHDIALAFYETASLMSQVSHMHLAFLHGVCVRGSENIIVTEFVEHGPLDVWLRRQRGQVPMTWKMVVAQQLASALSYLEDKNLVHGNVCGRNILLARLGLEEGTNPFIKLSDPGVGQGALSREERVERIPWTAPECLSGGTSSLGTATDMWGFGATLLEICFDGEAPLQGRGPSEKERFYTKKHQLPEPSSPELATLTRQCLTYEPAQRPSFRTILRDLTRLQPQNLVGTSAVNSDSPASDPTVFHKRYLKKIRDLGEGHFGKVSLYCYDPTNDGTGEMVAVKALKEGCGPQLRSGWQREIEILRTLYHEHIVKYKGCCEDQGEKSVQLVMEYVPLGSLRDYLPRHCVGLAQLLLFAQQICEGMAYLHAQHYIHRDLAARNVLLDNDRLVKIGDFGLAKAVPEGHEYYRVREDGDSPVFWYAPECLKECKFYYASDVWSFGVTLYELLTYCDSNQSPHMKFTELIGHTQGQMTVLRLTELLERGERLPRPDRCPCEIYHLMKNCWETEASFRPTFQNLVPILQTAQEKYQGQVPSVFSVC
Molecule,Kd (TYK2 JH2) [nM],Kd (JAK1 JH1) [nM],inhibition at 1 µM (TYK2; 1000 nM) [%],other results
BMS986165 [reference compound],–,–,–,Inhibitory activity % (50 nM) (TYK2; 50 nM): 74%; Inhibitory activity % (200 nM) (TYK2; 200 nM): 89%; Inhibitory activity % (1000 nM) (TYK2; 1000 nM): 96%; IC50 [1]: 56.8 nM; effect on TPO-induced downstream STAT3 phosphorylation (JAK2/JAK2 pathway): no effect; effect on downstream STAT1 phosphorylation induced by IFN-γ (JAK1/JAK2 pathway): no effect; effect on IL-2-induced downstream STAT5 phosphorylation (JAK1/JAK3 pathway): no effect; efficacy in IL-23 induced psoriasis (ear thickness) (IL-23 induced psoriasis): effectively inhibit and treat
"N#CC[C@H](C1CCCC1)n1cc(-c2ncnc3[nH]ccc23)cn1 [Ruxolitinib, reference compound]",–,–,–,effect on TPO-induced downstream STAT3 phosphorylation (JAK2/JAK2 pathway): could inhibit JAK2/JAK2 pathway
CCC(=O)c1cnc(NC(=O)C2CC2)cc1Nc1cccc(-c2ccc(P(C)(C)=O)cn2)c1OC [Compound B4],0.032,> 30000,58,–
"COc1cc(N)c(Cl)cc1C(=O)NC1CCN(CCCOc2ccc(F)cc2)CC1OC (stereo not drawn) [Cisapride, reference compound]",–,–,–,inhibition at 0.1 µM (hERG channel): > 50%
CCC(=O)c1cnc(NC(=O)C2CC2)cc1Nc1cccc(-c2ncc(P(C)(C)=O)cn2)c1OC [Compound B11],0.016,> 30000,62,–
CCC(=O)c1cnc(NC(=O)C2CC2)cc1Nc1cccc(-c2cnc(P(C)(C)=O)cn2)c1OC [Compound B5],0.095,> 30000,80,–
CCC(=O)c1cnc(NC(=O)C2CC2)cc1Nc1cccc(-c2ccc(P(C)(C)=O)cc2)c1OC [Compound B3],0.4,> 30000,88,"inhibition at 0.01 µM (TYK2; 10 nM, read-out: Inhibitory activity % (10 nM)): 21%; inhibition at 0.1 µM (TYK2; 100 nM, read-out: Inhibitory activity % (100 nM)): 46%"
CCC(=O)c1cnc(NC(=O)C2CC2)cc1Nc1nccc(-c2cc(P(=O)(C3CC3)C3CC3)n(C)n2)c1OC [Compound B38],0.0079,> 30000,95,Kd (JAK2 JH1): 11000 nM; IC50 [1]: 222 nM; inhibition of downstream STAT1 phosphorylation induced by IFN-α (TYK2/JAK1 pathway): effectively inhibit
